Test systems include M14 melanoma; A549 NSCLC; SF-295 CNS; NCI-H23 lung; HCC-2998 colon; HOP-62 NSCLC; HL-60(TB) leukemia; U251 CNS; SN12C renal; MCF7 breast; EKVX NSCLC; PC-3 prostate; IGROV1 ovarian.
What all share (test): NCI tumour cell line growth inhibition, 48 h

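48-hour exposure; five concentrations; linearly interpolated endpoints. The concentration for full growth arrest is given as TGI.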

Consider `Cc1cc(N(CCC#N)CCC#N)ccc1/C(N=Nc1ccccc1)=N\NC(=O)c1ccccc1`, for which the TGI with M14 melanoma, in the test on A549 NSCLC, in the test with SF-295 CNS, in the test on NCI-H23 lung, in the test on HCC-2998 colon and in the test with HOP-62 NSCLC was greater than 100 µM each time. The TGI with HL-60(TB) leukemia, in the test on U251 CNS, in the test with SN12C renal, in the test with MCF7 breast, in the test on EKVX NSCLC and in the test with PC-3 prostate was greater than 100 µM each time. This compound gave a TGI in the test with IGROV1 ovarian greater than 100 µM.
Turning to `O=C1OC2c3ccccc3C(=O)C2(c2ccccc2)N1c1ccccc1` (stereo not drawn), the TGI in the test on M14 melanoma, in the test with A549 NSCLC, with SF-295 CNS, in the test with NCI-H23 lung, with HCC-2998 colon and in the test on HOP-62 NSCLC was greater than 200 µM in each case. The TGI with HL-60(TB) leukemia, in the test on U251 CNS, in the test on SN12C renal, in the test on MCF7 breast, in the test with EKVX NSCLC and with PC-3 prostate was greater than 200 µM in each case. The TGI in the test with IGROV1 ovarian was greater than 200 µM.
Consider `N#CC(C#N)=Cc1ccc(C=C2SC3=C(SCCS3)S2)s1`, for which the TGI is greater than 100 µM in the test on M14 melanoma; greater than 100 µM with A549 NSCLC; greater than 100 µM in the test on SF-295 CNS; 95.3 µM in the test with NCI-H23 lung; greater than 100 µM with HCC-2998 colon; greater than 100 µM in the test on HOP-62 NSCLC. For the same compound, the TGI was 7.03 µM with HL-60(TB) leukemia; greater than 100 µM in the test on U251 CNS; greater than 100 µM in the test on SN12C renal; greater than 100 µM with MCF7 breast; greater than 100 µM in the test on EKVX NSCLC; greater than 100 µM with PC-3 prostate. This compound also gave a TGI in the test on IGROV1 ovarian greater than 100 µM.
As for `O=C(Nc1ccccc1)Nn1c(-c2cccs2)nc2ccc(I)cc2c1=O`, the TGI in the test with M14 melanoma was greater than 100 µM; in the test on A549 NSCLC, 49.4 µM; with SF-295 CNS, 98.5 µM; in the test on NCI-H23 lung it was greater than 100 µM; in the test with HCC-2998 colon it was 55.3 µM; in the test on HOP-62 NSCLC, greater than 100 µM. The TGI in the test with HL-60(TB) leukemia was 21.8 µM; with U251 CNS it was 64.8 µM; with SN12C renal it was greater than 100 µM; in the test with MCF7 breast it was 87.7 µM; in the test on EKVX NSCLC, 58.6 µM; in the test on PC-3 prostate it was greater than 100 µM. For the same compound, in the test on IGROV1 ovarian, the TGI was 71.7 µM.
Regarding `O=c1oc2cc(O)ccc2cc1-c1nc2ccccc2s1`, the TGI came out at 82.9 µM with M14 melanoma; 55.1 µM with A549 NSCLC; 89.3 µM with SF-295 CNS; 61.2 µM with NCI-H23 lung; 66.1 µM in the test with HCC-2998 colon; 41.6 µM with HOP-62 NSCLC. The TGI amounted to 55.6 µM with HL-60(TB) leukemia; 55.7 µM in the test with U251 CNS; 49 µM in the test on SN12C renal; 67 µM in the test on MCF7 breast; 85.9 µM in the test on EKVX NSCLC; 52.5 µM in the test on PC-3 prostate. This compound gave a TGI in the test on IGROV1 ovarian greater than 100 µM.
`C[N+](C)(C)C1(C(=O)[O-])CC1`: the TGI in the test on M14 melanoma, in the test on A549 NSCLC, in the test with SF-295 CNS, with NCI-H23 lung, in the test on HCC-2998 colon and in the test with HOP-62 NSCLC was greater than 100 µM in each case. The TGI in the test with HL-60(TB) leukemia, in the test with U251 CNS, in the test with SN12C renal, in the test with MCF7 breast, with EKVX NSCLC and with PC-3 prostate was greater than 100 µM throughout. This compound had a TGI in the test with IGROV1 ovarian greater than 100 µM.
Turning to `COc1ccc(N2CCN(Cc3c(C(C)=O)[n+](=O)c4ccccc4n3[O-])CC2)cc1`, the TGI in the test with M14 melanoma, in the test on A549 NSCLC, with SF-295 CNS, in the test with NCI-H23 lung, in the test with HCC-2998 colon and with HOP-62 NSCLC was greater than 100 µM in each case. In addition, the TGI in the test on HL-60(TB) leukemia, with U251 CNS, with SN12C renal, with MCF7 breast, with EKVX NSCLC and in the test with PC-3 prostate was greater than 100 µM in each case. Moreover, the TGI in the test with IGROV1 ovarian is greater than 100 µM.
Regarding `CC(=O)O[C@H]1[C@H](OC(C)=O)[C@@H](CN=[N+]=[N-])OCO[C@@H]1CN=[N+]=[N-]`, the TGI with M14 melanoma, with A549 NSCLC, in the test with SF-295 CNS, with NCI-H23 lung, in the test on HCC-2998 colon and in the test with HOP-62 NSCLC was greater than 100 µM throughout. Moreover, the TGI in the test with HL-60(TB) leukemia, with U251 CNS, in the test with SN12C renal, with MCF7 breast, with EKVX NSCLC and in the test with PC-3 prostate was greater than 100 µM each time. In the test on IGROV1 ovarian, this compound gave a TGI greater than 100 µM.
Regarding `O=C1C=CC[C@H](/C=C/C[C@@H](O)C[C@H](O)/C=C/c2ccccc2)O1`, the TGI in the test on M14 melanoma came to 27.4 µM; with A549 NSCLC, 33.5 µM; in the test with SF-295 CNS, 29.8 µM; with NCI-H23 lung, 23.5 µM; in the test with HCC-2998 colon, 18.6 µM; in the test on HOP-62 NSCLC it was 30.9 µM. The TGI in the test with HL-60(TB) leukemia came out at 17.7 µM; in the test on U251 CNS, 25.7 µM; in the test on SN12C renal, 26.9 µM; with MCF7 breast it was 24.8 µM; in the test on EKVX NSCLC, 25.2 µM; in the test on PC-3 prostate it was 27.8 µM. This compound also registered a TGI in the test on IGROV1 ovarian of 28 µM.
On to `CC(=O)O[C@H]1CC[C@H]2[C@@H]3CCC4=C(C(=O)C=CC4(C)OC(C)=O)[C@H]3CC[C@]12C` (stereo partly drawn), for which the TGI in the test with M14 melanoma, in the test with A549 NSCLC, in the test with SF-295 CNS, with NCI-H23 lung, with HCC-2998 colon and with HOP-62 NSCLC was greater than 100 µM throughout. Further, the TGI was 97.1 µM in the test on HL-60(TB) leukemia; greater than 100 µM in the test on U251 CNS; greater than 100 µM in the test with SN12C renal; 73.1 µM in the test with MCF7 breast; greater than 100 µM with EKVX NSCLC; greater than 100 µM in the test on PC-3 prostate. For the same compound, the TGI with IGROV1 ovarian was greater than 100 µM.
Turning to `CC(C)c1ccc2c(c1)C=C1OC(=O)[C@]3(C)CCC[C@@]2(C)C13` (stereo partly drawn), the TGI in the test on M14 melanoma, in the test with A549 NSCLC, in the test on SF-295 CNS, in the test on NCI-H23 lung, in the test with HCC-2998 colon and with HOP-62 NSCLC was greater than 100 µM in each case. For the same compound, the TGI in the test with HL-60(TB) leukemia, in the test with U251 CNS, in the test with SN12C renal, in the test on MCF7 breast, with EKVX NSCLC and in the test with PC-3 prostate was greater than 100 µM throughout. This compound also gave a TGI in the test on IGROV1 ovarian greater than 100 µM.
